Experimental data from PubChem BioAssay AID651677 (The Scripps Research Institute Molecular Screening Center, 2012).
The source made the active and inactive calls. How the calls were made is not given here.

Each compound was assayed against Perilipin-5 (Homo sapiens) + 1-acylglycerol-3-phosphate O-acyltransferase ABHD5 (Homo sapiens) (UniProt Q00G26+Q8WTS1) (assay: ABHD5-PLIN5 interaction inhibitors, dose response, biochemical, luminescence (AID 651677)).
Perilipin-5 (Homo sapiens) + 1-acylglycerol-3-phosphate O-acyltransferase ABHD5 (Homo sapiens), sequence (Q00G26 whole entry, looked up): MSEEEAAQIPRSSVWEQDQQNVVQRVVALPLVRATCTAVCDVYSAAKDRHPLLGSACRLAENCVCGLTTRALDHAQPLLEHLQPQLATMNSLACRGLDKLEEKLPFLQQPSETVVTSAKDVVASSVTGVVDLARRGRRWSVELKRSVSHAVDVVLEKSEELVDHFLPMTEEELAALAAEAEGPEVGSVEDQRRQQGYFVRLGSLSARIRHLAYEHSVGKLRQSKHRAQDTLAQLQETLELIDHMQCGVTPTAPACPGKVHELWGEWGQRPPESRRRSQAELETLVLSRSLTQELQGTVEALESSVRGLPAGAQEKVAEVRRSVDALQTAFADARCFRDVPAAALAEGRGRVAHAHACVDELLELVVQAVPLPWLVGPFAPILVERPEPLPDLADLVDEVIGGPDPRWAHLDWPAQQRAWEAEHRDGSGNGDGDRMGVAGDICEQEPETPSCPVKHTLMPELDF
Perilipin-5 (Homo sapiens) + 1-acylglycerol-3-phosphate O-acyltransferase ABHD5 (Homo sapiens), sequence (Q8WTS1 whole entry, looked up): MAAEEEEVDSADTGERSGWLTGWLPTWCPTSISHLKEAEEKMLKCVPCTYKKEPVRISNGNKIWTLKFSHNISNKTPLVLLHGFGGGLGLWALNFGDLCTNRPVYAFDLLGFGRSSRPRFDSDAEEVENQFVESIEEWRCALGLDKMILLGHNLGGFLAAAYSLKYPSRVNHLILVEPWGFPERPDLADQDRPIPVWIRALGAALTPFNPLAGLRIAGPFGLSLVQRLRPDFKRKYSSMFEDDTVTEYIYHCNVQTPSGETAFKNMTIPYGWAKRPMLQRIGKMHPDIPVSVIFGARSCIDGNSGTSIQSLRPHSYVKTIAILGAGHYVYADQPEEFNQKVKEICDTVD
With O=C(NCc1ccccc1)C(c1cc2ccccc2o1)n1c(=O)c(-c2ccco2)nc2ccccc21 (centres undefined) the IC50 was 2420 nM. COc1cc2c(cc1OC)C(C)N(CCc1ccc(Cl)cc1)CC2 (centres undefined) was tested, and the IC50 was “inactive”. CC(c1nc2ccccc2[nH]1)n1c(=O)c(-c2ccco2)nc2ccccc21 (centres undefined) was tested, and the IC50 was 2760 nM. O=C1NC(=O)N(c2ccccc2F)C(=O)/C1=C/c1ccc(Oc2ccc([N+](=O)[O-])cn2)cc1 gave an IC50 of 1470 nM. CCN(CC)CCNC(=O)c1ccc(NC(=O)c2cn(-c3ccccc3)nc2-c2cccs2)cc1 was tested, and the IC50 was “inactive”. COc1cc(OC)cc(C(=O)NC(=S)N(Cc2ccccc2)C(C)C)c1 was tested, and the IC50 was “inactive”. Work on Cc1ccc(SC2=C(Sc3ccc(C)cc3)C(=O)c3ccccc3C2=O)cc1 yielded an IC50 of 1000 nM. Compound O=C1CC(c2ccc(Cl)cc2)Oc2ccc(Cl)cc21 (centres undefined) has an IC50 of 2840 nM. In the case of CCC(c1nc2ccccc2[nH]1)n1c(=O)c(-c2ccco2)nc2ccccc21 (centres undefined), the IC50 is reported as 3110 nM. Work on Cc1ccc(NC(=O)CSc2nnc(-c3ccco3)c(-c3ccco3)n2)cc1 yielded an IC50 of 1180 nM. In the case of O=C(Cn1c(=O)n(Cc2ccco2)c(=O)c2c3c(sc21)CCCC3)Nc1ccccc1, the IC50 is reported as “inactive”. With CCCCC(=O)NC(c1cccc([N+](=O)[O-])c1)c1ccc2cccnc2c1O (centres undefined) the IC50 was > 39800 nM (inactive). Compound COc1ccc(/C=C/C(=O)c2cc(F)ccc2OC(=O)c2ccc(OC)c(OC)c2)cc1OC has an IC50 of 2740 nM. Work on O=C(/C=C/c1ccccc1)CC(O)(c1ccccc1)C(F)(F)C(F)F (centres undefined) yielded an IC50 of 1140 nM. Compound CCN(CC)CCOCCOC(=O)C1(c2ccccc2)CCCC1 has an IC50 of 2030 nM. Cc1nc2c(o1)CCc1ccccc1C2N1CCN(C)CC1 (centres undefined) gave an IC50 of 8830 nM. For CN(C)CCCNC(=O)c1ccc(-c2nc(-c3ccc(Cl)cc3)cs2)cc1, the IC50 was “inactive”. For Cc1ccc(/C(O)=C2/C(=O)C(=O)OC2c2ccc(Cl)cc2)cc1 (centres undefined), the IC50 was 9720 nM. CC1(C)C2CCC(CN=C(N)CSS(=O)(=O)O)C1C2 (centres undefined) gave an IC50 of 4270 nM. Work on COCCNC(=O)/C(C#N)=C/c1cccc(/C=C(\C#N)C(=O)NCCOC)c1 yielded an IC50 of 727 nM. For COc1cccc2sc(N(CCCN(C)C)C(=O)COc3ccc(Cl)cc3)nc12, the IC50 was “inactive”. In the case of C#CCN(C[C@@H]1[C@@H](OC(=O)NCc2ccccc2F)[C@@H](OC(=O)NCc2ccccc2F)Cn2c(=O)ccc(=O)n21)S(=O)(=O)c1ccc(C)cc1, the IC50 is reported as 5040 nM. In the case of CC1CCN(S(=O)(=O)c2ccc(NC(=O)Cc3ccccc3)cc2)CC1, the IC50 is reported as 9470 nM. For Cc1ccc(S(=O)(=O)N2C[C@H]3n4c(=O)ccc(=O)n4C[C@H](OC(=O)Nc4cccs4)[C@@]3(O)C2)cc1, the IC50 was 7930 nM. Work on O=C1NC(=S)NC(=O)C12C(c1ccccc1)NC(=S)NC2c1ccccc1 (centres undefined) yielded an IC50 of 4390 nM. Cc1ccc2sc(N(CCCN(C)C)C(=O)CN3C(=O)c4ccccc4C3=O)nc2c1C was tested, and the IC50 was “inactive”. Work on O=CC1=C(c2ccccc2)Oc2ccccc2O1 yielded an IC50 of 3520 nM. CCN1C/C(=C/c2ccc(OC)c(O)c2)C(=O)/C(=C/c2ccc(OC)c(O)c2)C1 was tested, and the IC50 was 5660 nM. O=C(O)CC(O)(CC(=O)O)C(=O)O showed an IC50 of 5630 nM. In the case of Cc1cccc(C)c1NC(=O)C(c1ccnc2ccccc12)n1c(=O)c(-c2ccco2)nc2ccccc21 (centres undefined), the IC50 is reported as 3550 nM. With NC(=O)CCN1CCN(CCOC2Cc3cc(Cl)ccc3Sc3ccccc32)CC1 (centres undefined) the IC50 was “inactive”. In the case of COc1ccc(C(C(=O)Nc2c(C)cccc2C)n2c(=O)c(-c3ccco3)nc3ccccc32)cc1 (centres undefined), the IC50 is reported as 2380 nM. For Cc1cccc(C)c1NC(=O)C(c1cccc2ccccc12)n1c(=O)c(-c2ccco2)nc2ccccc21 (centres undefined), the IC50 was 1810 nM. Work on Cc1cc(C)c(NC(=O)C[N+](C)(C)CC(O)COc2cccc3ccccc23)c(C)c1 (centres undefined) yielded an IC50 of 7490 nM. Cc1cccc(NC(=O)CSc2nnc(-c3ccco3)c(-c3ccco3)n2)c1 showed an IC50 of 1050 nM. Cc1cccc(C)c1NC(=O)C(c1ccc(C#N)cc1)n1c(=O)c(-c2ccco2)nc2ccccc21 (centres undefined) was tested, and the IC50 was 2450 nM. With CN(C)CCCN(C(=O)CCc1ccccc1)c1nc2ccc(Br)cc2s1 the IC50 was 7910 nM. CC(=O)Oc1c(Cl)c(N2CCOCC2)c(OC(C)=O)c2ccccc12 gave an IC50 of 4280 nM. For CSC(=Nc1ccccc1)N=C(SCc1ccccc1)N(C)C, the IC50 was 1170 nM. With CC(C)(C)NC(=O)C(c1cccc2ccccc12)n1c(=O)c(-c2ccco2)nc2ccccc21 (centres undefined) the IC50 was 2390 nM. Work on CC(C)(C)NC(=O)C(c1ccccc1F)n1c(=O)c(-c2ccco2)nc2ccccc21 (centres undefined) yielded an IC50 of 2280 nM. In the case of O=c1nc(/C=C/c2ccc(Cl)cc2Cl)cc(C(F)(F)F)[nH]1, the IC50 is reported as 3480 nM. Compound Oc1c(C(c2ccccc2)N2CCCCC2)ccc2ccccc12 (centres undefined) has an IC50 of 845 nM. O=C1C(=O)c2c(C(=O)c3ccccc3)coc2-c2ccccc21 showed an IC50 of 2930 nM. Compound N#Cc1ccc(C(C(=O)Nc2ccc3c(c2)OCCO3)n2c(=O)c(-c3ccco3)nc3ccccc32)cc1 (centres undefined) has an IC50 of 7270 nM. In the case of Cc1cccc(C)c1NC(=O)C(c1ccccc1F)n1c(=O)c(-c2ccco2)nc2ccccc21 (centres undefined), the IC50 is reported as 2730 nM. For CS(=O)(=O)c1ccc(C(=O)NCCN2C(=O)S/C(=C\c3cccnc3)C2=O)cc1[N+](=O)[O-], the IC50 was 3670 nM. Cc1oc2c(c1C(=O)c1ccc(Cl)cc1)C(=O)C(=O)c1ccccc1-2 gave an IC50 of 1980 nM. With COc1ccc(NC(=O)C(c2cccc3ccccc23)n2c(=O)c(-c3ccco3)nc3ccccc32)cc1 (centres undefined) the IC50 was “inactive”. With CCOC(=O)N1CCN(C(=O)C[C@@H]2C[C@@]3(C(=O)OCC)CCC=C3N(Cc3ccc(Cl)cc3Cl)C2=O)CC1 the IC50 was “inactive”. In the case of CCCCCCC=C1CCC(CN2CCCC2)C1=O (centres undefined), the IC50 is reported as 1940 nM. Cc1ccc(C(=O)/C=C/c2cc(Br)cc(Br)c2O)o1 was tested, and the IC50 was 5540 nM. CCCCCNC(=O)C(C1CC1)n1c(=O)c(-c2ccco2)nc2ccccc21 (centres undefined) gave an IC50 of 9790 nM. Work on CC(=O)Nc1ccc(OCc2cn(CC(=O)c3ccc(O)cc3)nn2)cc1 yielded an IC50 of 2320 nM. Compound O=C(/C=C/c1ccc2c(c1)OCCCO2)c1ccccc1O has an IC50 of 5650 nM. CCCc1nnc(NC(=O)c2nc(S(=O)(=O)Cc3cccc(C)c3)ncc2Cl)s1 gave an IC50 of 3410 nM. CC(C)(C)NC(=O)C(C1CC1)n1c(=O)c(-c2ccco2)nc2ccccc21 (centres undefined) showed an IC50 of 2740 nM. COc1ccc(NC(=O)c2cc3ccccc3cc2O)cc1 was tested, and the IC50 was 9050 nM. O=C(NC1CCCCC1)C(c1ccccc1F)n1c(=O)c(-c2ccco2)nc2ccccc21 (centres undefined) showed an IC50 of 1260 nM. Oc1ccc2sc(-c3ccccc3O)c(-c3ccc(OCCN4CCCCC4)cc3)c2c1 was tested, and the IC50 was “inactive”. For Cc1ccc(CC2(OCCN(C)C)CCC(C(C)(C)C)CC2)cc1 (centres undefined), the IC50 was 8610 nM. CC(C)(C)NC(=O)C(c1cc2ccccc2o1)n1c(=O)c(-c2ccco2)nc2ccccc21 (centres undefined) was tested, and the IC50 was 1550 nM. O=C(NCc1ccccc1)C(C1CC1)n1c(=O)c(-c2ccco2)nc2ccccc21 (centres undefined) gave an IC50 of 7200 nM. FC(F)(F)c1cccc(NC(=S)N(CCCN2CCCC2)Cc2cccn2Cc2ccc(Cl)cc2)c1 was tested, and the IC50 was “inactive”. For CCCCCNC(=O)C(c1ccc(C(F)(F)F)cc1)n1c(=O)c(-c2ccco2)nc2ccccc21 (centres undefined), the IC50 was 1820 nM. For COC/C=C/C1=CC2=CC(=O)C(C)(OC(=O)C3CCCC3)C(=O)C2=CO1 (centres undefined), the IC50 was 1750 nM. With CC(=O)C1=C(c2cccc([N+](=O)[O-])c2)N(C(C)=O)n2c(C)nnc2S1 the IC50 was 2860 nM. Cc1nc(-c2ccccc2)sc1C(=O)/C=C/c1ccccc1 showed an IC50 of 2790 nM. CC(=O)Cc1cc(O)c2ccccc2c1OC(=O)c1ccccc1 gave an IC50 of 1960 nM. Compound CSc1nnc(NC(=O)c2nc(S(=O)(=O)Cc3ccc(C)cc3)ncc2Cl)s1 has an IC50 of 2510 nM. In the case of COC(=O)c1ccc(Cn2cc(/C=C\[N+](=O)[O-])c3ccccc32)o1, the IC50 is reported as 6260 nM. In the case of COc1cc(C)c2sc3ccccc3c(=O)c2c1NCCN(C)C, the IC50 is reported as 3840 nM. Work on CCSc1ccc2c(c1)N(CCCN1CCN(C)CC1)c1ccccc1S2 yielded an IC50 of 5860 nM. Work on COc1ccc(C)c2sc(N(CCN(C)C)C(=O)/C=C/c3cccs3)nc12 yielded an IC50 of 9910 nM.
